Each molecule was assayed on GDF8 signaling (p-SMAD-3 (Ser423/425)) (assay: AlphaScreen SureFire SMAD3 (p-Ser423/425) assay, GDF8-stimulated cells (GDF pSMAD)). Settings: Mus musculus, MPC-11, GDF8-stimulated pSMAD3, MPC11; tested as the salt form given; read-out: GDF pSMAD (MPC11) (μM), inhibition of GDF8 signaling.
Format: cell-based

IC50 [µM] | SMILES
0.285 | Cc1cnc(-c2ccc(F)c(Cl)c2)c(-c2ccc3ncnc(N)c3c2)c1 [compound 990, 6-(2-(3-chloro-4-fluorophenyl)-5-methylpyridin-3-yl)quinazolin-4-amine]
1.42 | Cc1cc(-c2ncccc2-c2ccc3ncnc(N)c3c2)c(C)cc1F [compound 1002, 6-(2-(4-fluoro-2,5-dimethylphenyl)pyridin-3-yl)quinazolin-4-amine]
7.27 | Nc1ncnc2ccc(-c3cccnc3-c3ccccc3F)cc12 [compound 1003, 6-(2-(2-fluorophenyl)pyridin-3-yl)quinazolin-4-amine]
0.203 | Cc1ccc(F)c(-c2ncccc2-c2ccc3ncnc(N)c3c2)c1 [compound 1004, 6-(2-(2-fluoro-5-methylphenyl)pyridin-3-yl)quinazolin-4-amine]
5.45 | Cc1ccc(O)cc1-c1ncccc1-c1ccc2ncnc(N)c2c1 [compound 1005, 3-(3-(4-aminoquinazolin-6-yl)pyridin-2-yl)-4-methylphenol]
0.735 | Nc1ncnc2ccc(-c3cccnc3-c3cc(O)ccc3F)cc12 [compound 1006, 3-(3-(4-aminoquinazolin-6-yl)pyridin-2-yl)-4-fluorophenol]
0.223 | CCc1cccc(-c2ncccc2-c2ccc3ncnc(N)c3c2)c1 [compound 1007, 6-(2-(3-ethylphenyl)pyridin-3-yl)quinazolin-4-amine]
0.562 | Nc1ncnc2ccc(-c3cccnc3-c3ccc(F)c(OC(F)F)c3)cc12 [compound 1010, 6-(2-(3-(difluoromethoxy)-4-fluorophenyl)pyridin-3-yl)quinazolin-4-amine]
0.728 | Cc1cc(-c2ncccc2-c2ccc3ncnc(N)c3c2)c(Cl)cc1F [compound 1012, 6-(2-(2-chloro-4-fluoro-5-methylphenyl)pyridin-3-yl)quinazolin-4-amine]
6.95 | COc1ccc(C)c(-c2ncccc2-c2ccc3ncnc(N)c3c2)c1 [compound 1015, 6-(2-(5-methoxy-2-methylphenyl)pyridin-3-yl)quinazolin-4-amine]
7.43 | Cc1cc(F)c(O)cc1-c1ncccc1-c1ccc2ncnc(N)c2c1 [compound 1019]
0.175 | Cc1cc(-c2ncccc2-c2ccc3ncnc(N)c3c2)ccc1F [compound 1021, 6-(2-(4-fluoro-3-methylphenyl)pyridin-3-yl)quinazolin-4-amine]
13.7 | COc1cc(-c2ncccc2-c2ccc3ncnc(N)c3c2)c(C)cc1F [compound 1022, 6-(2-(4-fluoro-5-methoxy-2-methylphenyl)pyridin-3-yl)quinazolin-4-amine]
0.0958 | Nc1ncnc2ccc(-c3cccnc3-c3cc(C(F)F)ccc3F)cc12 [compound 1023, 6-(2-(5-(difluoromethyl)-2-fluorophenyl)pyridin-3-yl)quinazolin-4-amine]
0.577 | Cc1ccc(C(F)F)cc1-c1ncccc1-c1ccc2ncnc(N)c2c1 [compound 1024, 6-(2-(5-(difluoromethyl)-2-methylphenyl)pyridin-3-yl)quinazolin-4-amine]
0.958 | Cc1cc(F)c(C(F)F)cc1-c1ncccc1-c1ccc2ncnc(N)c2c1 [compound 1025, 6-(2-(5-(difluoromethyl)-4-fluoro-2-methylphenyl)pyridin-3-yl)quinazolin-4-amine]
0.737 | Cc1cc(-c2ncccc2-c2ccc3ncnc(NCC(N)=O)c3c2)ccc1F [compound 1026, 2-((6-(2-(4-fluoro-3-methylphenyl)pyridin-3-yl)quinazolin-4-yl)amino)acetamide]
10.8 | Cc1cc(-c2ncccc2-c2ccc3ncnc(NC(C)C(N)=O)c3c2)ccc1F (centres unmarked) [compound 1027, 2-((6-(2-(4-fluoro-3-methylphenyl)pyridin-3-yl)quinazolin-4-yl)amino)propanamide]
10.4 | COC(=O)CNc1ncnc2ccc(-c3cccnc3-c3ccc(F)c(C)c3)cc12 [compound 1028, methyl (6-(2-(4-fluoro-3-methylphenyl)pyridin-3-yl)quinazolin-4-yl)glycinate]
2.61 | Cc1cc(-c2ncccc2-c2ccc3ncnc(NCCC(N)=O)c3c2)ccc1F [compound 1029, 3-((6-(2-(4-fluoro-3-methylphenyl)pyridin-3-yl)quinazolin-4-yl)amino)propanamide]
0.161 | Nc1ncnc2ccc(-c3cccnc3-c3cc(Cl)cc(F)c3F)cc12 [compound 1035, 6-(2-(5-chloro-2,3-difluorophenyl)pyridin-3-yl)quinazolin-4-amine]

Continued, molecule first:

SMILES | IC50 [µM]
Cc1cnc(-c2cccc(O)c2)c(-c2ccc3ncnc(N)c3c2)c1 [compound 991, 3-(3-(4-aminoquinazolin-6-yl)-5-methylpyridin-2-yl)phenol] | 20.2
COc1cnc(-c2ccc(F)c(Cl)c2)c(-c2ccc3ncnc(N)c3c2)c1 [compound 992, 6-(2-(3-chloro-4-fluorophenyl)-5-methoxypyridin-3-yl)quinazolin-4-amine] | 1.86
COc1cnc(-c2cc(Cl)ccc2F)c(-c2ccc3ncnc(N)c3c2)c1 [compound 993, 6-(2-(5-chloro-2-fluorophenyl)-5-methoxypyridin-3-yl)quinazolin-4-amine] | 0.486
COc1cnc(-c2cccc(O)c2)c(-c2ccc3ncnc(N)c3c2)c1 [compound 994, 3-(3-(4-aminoquinazolin-6-yl)-5-methoxypyridin-2-yl)phenol] | 3.21
Nc1ncnc2ccc(-c3cc(F)cnc3-c3ccc(F)c(Cl)c3)cc12 [compound 998, 6-(2-(3-chloro-4-fluorophenyl)-5-fluoropyridin-3-yl)quinazolin-4-amine] | 2.44
Nc1ncnc2ccc(-c3cc(F)cnc3-c3cc(Cl)ccc3F)cc12 [compound 999, 6-(2-(5-chloro-2-fluorophenyl)-5-fluoropyridin-3-yl)quinazolin-4-amine] | 1.2
Nc1ncnc2ccc(-c3cc(F)cnc3-c3cccc(O)c3)cc12 [compound 1000, 3-(3-(4-aminoquinazolin-6-yl)-5-fluoropyridin-2-yl)phenol] | 6.5
COc1cc(-c2ncccc2-c2ccc3ncnc(N)c3c2)c(Cl)cc1F [compound 1008, 6-(2-(2-chloro-4-fluoro-5-methoxyphenyl)pyridin-3-yl)quinazolin-4-amine] | 5.81
Nc1ncnc2ccc(-c3cccnc3-c3cc(OC(F)(F)F)ccc3Cl)cc12 [compound 1009, 6-(2-(2-chloro-5-(trifluoromethoxy)phenyl)pyridin-3-yl)quinazolin-4-amine] | 3.29
COc1ccc(Cl)c(-c2ncccc2-c2ccc3ncnc(N)c3c2)c1 [compound 1011, 6-(2-(2-chloro-5-methoxyphenyl)pyridin-3-yl)quinazolin-4-amine] | 3.33
Nc1ncnc2ccc(-c3cccnc3-c3cc(O)c(F)cc3F)cc12 [compound 1013, 5-(3-(4-aminoquinazolin-6-yl)pyridin-2-yl)-2,4-difluorophenol] | 1.05
Nc1ncnc2ccc(-c3cccnc3-c3cc(OC(F)(F)F)ccc3F)cc12 [compound 1014, 6-(2-(2-fluoro-5-(trifluoromethoxy)phenyl)pyridin-3-yl)quinazolin-4-amine] | 0.416
Nc1ncnc2ccc(-c3cccnc3-c3cc(O)ccc3Cl)cc12 [compound 1016, 3-(3-(4-aminoquinazolin-6-yl)pyridin-2-yl)-4-chlorophenol] | 2.77
Nc1ncnc2ccc(-c3cccnc3-c3cc(OC(F)F)ccc3Cl)cc12 [compound 1017, 6-(2-(2-chloro-5-(difluoromethoxy)phenyl)pyridin-3-yl)quinazolin-4-amine] | 2.08
Nc1ncnc2ccc(-c3cccnc3-c3cc(C(F)F)ccc3Cl)cc12 [compound 1018, 6-(2-(2-chloro-5-(difluoromethyl)phenyl)pyridin-3-yl)quinazolin-4-amine] | 0.735
Nc1ncnc2ccc(-c3cccnc3-c3cc(O)c(F)cc3Cl)cc12 [compound 1020, 5-(3-(4-aminoquinazolin-6-yl)pyridin-2-yl)-4-chloro-2-fluorophenol] | 4.77
Nc1ncnc2ccc(-c3cccnc3-c3cccc(OC4COC4)c3)cc12 [compound 1030, 6-(2-(3-(oxetan-3-yloxy)phenyl)pyridin-3-yl)quinazolin-4-amine] | 1.14
O=C(O)CNc1ncnc2ccc(-c3cccnc3-c3cc(Cl)ccc3F)cc12 [compound 1031, (6-(2-(5-chloro-2-fluorophenyl)pyridin-3-yl)quinazolin-4-yl)glycine] | 15.8
Cn1ccc(Nc2ncnc3ccc(-c4cccnc4-c4cc(Cl)ccc4F)cc23)n1 [compound 1032, 6-(2-(5-chloro-2-fluorophenyl)pyridin-3-yl)-N-(1-methyl-1H-pyrazol-3-yl)quinazolin-4-amine] | 1.09
Fc1ccc(Cl)cc1-c1ncccc1-c1ccc2ncnc(Nc3cn[nH]c3)c2c1 [compound 1033, 6-(2-(5-chloro-2-fluorophenyl)pyridin-3-yl)-N-(1H-pyrazol-4-yl)quinazolin-4-amine] | 1.58
Cc1c(F)cc(C(F)F)cc1-c1ncccc1-c1ccc2ncnc(N)c2c1 [compound 1034, 6-(2-(5-(difluoromethyl)-3-fluoro-2-methylphenyl)pyridin-3-yl)quinazolin-4-amine] | 0.342
Nc1ncnc2ccc(-c3cccnc3-c3cc(Cl)ccc3F)nc12 [compound 1039] | 0.0438
CN1CCN(CCCNc2ncnc3ccc(-c4cccnc4-c4cc(Cl)ccc4F)cc23)CC1 [compound 1046] | 1.63
Fc1cc(F)c(F)c(-c2ncccc2-c2ccn3nccc3n2)c1 [compound 1052, 6-(2-(4-Fluoro-2,5-dimethylphenyl)pyridin-3-yl)-[,2,4]triazolo[1,5-a]pyridine] | 3.61
Fc1cc(-c2ncccc2-c2ccn3nccc3n2)c(F)c(F)c1F [compound 1053] | 0.368
Fc1cc(-c2ncccc2-c2ccc3ncsc3c2)c(F)c(F)c1F [compound 1054] | 0.737
Fc1cc(F)c(F)c(-c2ncccc2-c2ccc3ncsc3c2)c1 [compound 1055] | 0.129
Cc1ccc(Cl)cc1-c1ncccc1-c1ccc2ncsc2c1 [compound 1057] | 0.371
Cc1cc(-c2ncccc2-c2ccc3ncsc3c2)c(C)cc1F [compound 1061] | 0.473
